Patent US5360809A, “Imidazole compounds and their use as calcium channel blockers” (NeuroSearch A/S, priority 1992, dated 1994)

Tested on: voltage operated calcium channels (P- and L-type), rat synaptosomes
Assay: 45Ca influx into rat synaptosomes under depolarized conditions
Format: biochemical, rat (male Wistar)
Details: depolarization induced 45Ca uptake, rat cortex synaptosomes
From the text: A high influx of calcium from extracelluar compartments into neurons is seen after opening of voltage operated calcium channels. Such opening of calcium channels may be induced by depolarization of neuronal membranes. A crude synaptosome preparation contains small vesicles surrounded by neuronal membranes, and it is possible to study an opening of the voltage operated calcium channels in such a preparation. In the below described test influx of ^45 Ca into rat synaptosomes is studied under depolarized conditions. The effect of test substances on the depolarization induced calcium uptake can thus be studied.
The compounds of the present invention which potently block the calcium influx of up to 20 to 40% in this test are believed to be blockers of predominantly the P-type of calcium channels and the compounds of the present invention, which at somewhat higher concentrations block the calcium influx more completely or totally, are believed to be both P- and L-type calcium channel blockers, or predominantly L-type of calcium channel blockers.
The cerebral cortex from a male Wistar rat is homogenized in 20 ml ice cold 0.32M saccharose. In the following steps the temperature is kept at 0° C. to 4° C. The homogenate is centrifuged at 1,000×g for 10 minutes and the supernatant recentrifuged for 20 minutes at 18,000×g. The obtained pellet is resuspended in 0.32M saccharose (10 ml per g of original tissue). Aliquots of 0.05 ml of the hereby obtained synaptosome suspension are added to glass tubes containing 0.625 ml of a NaCl buffer (136 mM NaCl, 4 mM KCl, 0.35 mM CaCl2, 1.2 mM MgCl2, 20 mM Tris HCl, 12 mM glucose, pH 7.4) as well as 0.025 ml of different test substances in 48% ethanol. These tubes are pre-incubatedfor 30 minutes on ice and thereafter for 6 minutes at 37° C. ^45 Ca uptake is initiated by addition to above glass-tubes of 0.4 ml ^45 CACl2 (specific activity: 29-39 Ci/g; […]). […] The radioactivity on the filters are measured by liquid scintillation spectrometry. […]

Structure (SMILES) | IC50
Fc1ccc2c(c1)ncn2-c1ccc(I)cc1 [1-(4-iodophenyl)-5-fluoro-benzimidazole] | 7 µM
FC(F)(F)c1ccc2c(c1)ncn2-c1cccc(-c2ccsc2)c1 [1-[3-(3-thienyl)phenyl-5-trifluoromethyl]-benzimidazole] | 3.4 µM
Nc1cccc(-c2cccc(-n3cnc4cc(C(F)(F)F)ccc43)c2)c1 [1-[3-(3-aminophenyl)-phenyl]-5-trifluoromethyl-benzimidazole] | 14 µM
